Measurements reported in patent publication US11773127B2, “Compounds and methods for treating bacterial infections” (Washington University, priority 2017, dated 2023).
Like-named read-outs stand apart in the source and are kept apart here.

Target: T1, FmlHLD (Escherichia coli, UniProt P77588)
T1 construct: 6xHis (C); made in house; host or cells: E. coli C600, periplasm, pTRC99a
Test: biochemical
Format: binding, E. coli
Conditions: for inhibitory potency against FmlH, in words: ELISA-based competition assay; for potency relative to matched pair Gal/GalNAc derivative: 2038 vs 2043, 2050 vs 3029
Experimental: Thereafter, wells were incubated with 200 μl blocking buffer (PBS+1% BSA) for 2 hours at 23° C., followed by incubation with 100 μl biotinylated FmlHLD diluted in blocking buffer to 20 μg/ml in the presence or absence of the tested compounds for 1 hr at 23° C. After washing 3× with PBS+0.05% TWEEN-20, 100 μl Streptavidin-HRP conjugate (BD Biosciences; 1:2000 dilution in blocking buffer) was added to each well for 1 hr at 23° C. After a final round of washing, plates were developed with 100 μl Tetramethylbenzidine (TMB, BD Biosciences) substrate, quenched within 1-2 min with 50 μl […], and absorbance measured at 450 nm.
Select top hit compounds and few low-scoring analogs from the virtual screening, as well as synthetic galactosides, were tested in the ELISA-based competition assay for their ability to inhibit binding of FmlHLD to ds-BSM. The ELISA assay was performed using the protocol described in Example 18. […] All compounds were tested at 100 μM; a subset was tested at 10 μM; and the strongest subset was additionally tested at 1 μM. […] Percent inhibition (PI) values are reported as the mean with standard error of the mean for galactosides tested at 100 μM (PI100), 10 μM (PI10), and 1 μM (PI1) in the ELISA-based competition assay. […] The “thio” designation indicates a sulfur linkage between the sugar and the aglycone group, the “phospho” designation indicates a phosphate group attached the C6-hydroxyl group on the sugar, and the “uro” designation indicates galacturonide as the sugar.
The ELISA assay was performed using the protocol described in Example 18. All compounds were tested at 1 μM and a subset was additionally tested at 100 nM. Average percent inhibition (PI) values are reported for compounds tested at 1 μM (PI1) and 100 nM (PI0.1).
Briefly, 1 μg bovine submaxillary mucin (Sigma) in 100 uL PBS were incubated with Immulon 4HBX 96-well plates overnight prior to treatment with 1 mU Arthrobacter ureafaciens sialidase for 1 hour at 37° C. to remove terminal sialic acid sugars. Wells were then blocked with 200 μL PBS+1% BSA for 2 hours at room temperature. Biotinylated FmlH^LD was diluted to 20 μg/mL in blocking buffer and incubated in the presence or absence of compounds serially diluted 2× down eight rows for 1 hour at room temperature. Wells were washed three times with PBS 0.05% TWEEN-20 then incubated with 100 μL of streptavidin-HRP conjugate (BD Biosciences; 1:2,000 dilution in blocking buffer) for one hour. After three additional PBS+0.05% TWEEN washes, plates were developed with 100 μL of tetramethylbenzidine (BD Biosciences) substrate and quenched with 50 μL of 1 M H2SO4. Total bound portion concentration was measured by the absorbance at 450 nm. IC50s were determined using the Graphpad Prism software.
The compounds synthesized herein were tested in the ELISA-based competition assay for their ability to inhibit binding of FmlHLD to ds-BSM. The ELISA assay was performed using the protocol described in Example 18. Compounds were tested at […], 1 μM, and 100 nM. as indicated on the table. […] ND means the corresponding value was not determined for this summary (but may be available elsewhere in the Examples).

[1] = IC50 (μM), Table 5, Gal and GalNAc inhibition of FmlH
[2] = read-out: % Inhibition at [μM] [1], compound at 1 μM, inhibition of FmlHLD binding to ds-BSM
[3] = read-out: PI(1) (average percent inhibition), compound at 1 μM, Table 4
[4] = IC50, inhibition of FmlHLD binding to ds-BSM
[5] = read-out: % Inhibition at [μM] [0.1], compound at 0.1 μM (100 nM), inhibition of FmlHLD binding to ds-BSM
[6] = read-out: PI (0.1) (average percent inhibition), compound at 100 nM, Table 4

T1 sequence (P77588 25-182): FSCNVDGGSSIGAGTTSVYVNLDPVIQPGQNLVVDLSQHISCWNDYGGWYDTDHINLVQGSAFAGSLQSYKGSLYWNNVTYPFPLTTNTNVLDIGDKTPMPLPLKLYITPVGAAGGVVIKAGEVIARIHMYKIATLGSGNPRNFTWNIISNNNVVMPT

Compound	inhibitory potency against FmlH, in words	IC50 [1] [µM]	inhibition at 1 µM [2] [%]	inhibition at 1 µM [3] [%]	potency relative to matched pair Gal/GalNAc derivative	IC50 [4] [µM]	greater potency than 29β-NAc (IC50 ratio) [fold]	inhibition at 0.1 µM [5] [%]	inhibition at 0.1 µM [6] [%]
CC(=O)N[C@H]1[C@H](Oc2ccccc2-c2cccc(C(N)=O)c2)O[C@H](CO)[C@H](O)[C@@H]1O [AM2033, 2′-(((2S,3R,4R,5R,6R)-3-acetamido-4,5-dihydroxy-6-(hydroxymethyl)tetrahydro-2H-pyran-2-yl)oxy)-[1,1′-biphenyl]-3-carboxamide]	equal or slightly reduced potency	1.65	3.52	3.52	–	–	–	–	–
CC(=O)N[C@H]1[C@H](Oc2ccccc2-c2cccc(C#N)c2)O[C@H](CO)[C@H](O)[C@@H]1O [AM2035, N-((2S,3R,4R,5R,6R)-2-((3′-cyano-[1,1′-biphenyl]-2-yl)oxy)-4,5-dihydroxy-6-(hydroxymethyl)tetrahydro-2H-pyran-3-yl)acetamide]	equal or slightly reduced potency	0.97	20.9	20.9	–	–	–	–	–
CC(=O)N[C@H]1[C@H](Oc2ccccc2-c2cccc(C(F)(F)F)c2)O[C@H](CO)[C@H](O)[C@@H]1O [AM2037, N-((2S,3R,4R,5R,6R)-4,5-dihydroxy-6-(hydroxymethyl)-2-((3′-(trifluoromethyl)-[1,1′-biphenyl]-2-yl)oxy)tetrahydro-2H-pyran-3-yl)acetamide]	equal or slightly reduced potency	1.51	15.7	15.7	–	–	–	–	–
CC(=O)N[C@H]1[C@H](Oc2ccccc2-c2cccc(NS(C)(=O)=O)c2)O[C@H](CO)[C@H](O)[C@@H]1O [AM2038, N-((2S,3R,4R,5R,6R)-4,5-dihydroxy-6-(hydroxymethyl)-2-((3′-(methylsulfonamido)-[1,1′-biphenyl]-2-yl)oxy)tetrahydro-2H-pyran-3-yl)acetamide]	–	0.23	81.4	81.4	about 5 fold	0.271	3	16.5	16.5
CNC(=O)c1cccc(-c2ccccc2O[C@@H]2O[C@H](CO)[C@H](O)[C@H](O)[C@H]2O)c1 [AM2042, N-methyl-2′-(((2S,3R,4S,5R,6R)-3,4,5-trihydroxy-6-(hydroxymethyl)tetrahydro-2H-pyran-2-yl)oxy)-[1,1′-biphenyl]-3-carboxamide]	–	–	16.6	16.6	–	–	–	0	0
CS(=O)(=O)Nc1cccc(-c2ccccc2O[C@@H]2O[C@H](CO)[C@H](O)[C@H](O)[C@H]2O)c1 [AM2043, N-(2′-(((2S,3R,4S,5R,6R)-3,4,5-trihydroxy-6-(hydroxymethyl)tetrahydro-2H-pyran-2-yl)oxy)-[1,1′-biphenyl]-3-yl)methanesulfonamide]	loss in activity relative to 29β-NAc	1.11	49.8	49.8	–	1.11	–	1.6	1.6
O=C(O)c1cc(-c2ccccc2O[C@@H]2O[C@H](CO)[C@H](O)[C@H](O)[C@H]2O)cc([N+](=O)[O-])c1 [AM2050, 5-nitro-2′-(((2S,3R,4S,5R,6R)-3,4,5-trihydroxy-6-(hydroxymethyl)tetrahydro-2H-pyran-2-yl)oxy)-[1,1′-biphenyl]-3-car oxylic acid]	–	0.28	68	68	6 fold	0.418	–	7.6	7.6
COc1ccc(C(=O)O)cc1-c1ccccc1O[C@@H]1O[C@H](CO)[C@H](O)[C@H](O)[C@H]1NC(C)=O [AM2051]	–	–	15.9	–	–	–	–	0	–
CCOC(=O)c1ccc(OC)c(-c2ccccc2O[C@@H]2O[C@H](CO)[C@H](O)[C@H](O)[C@H]2NC(C)=O)c1 [AM2053, ethyl 2′-(((2S,3R,4R,5R,6R)-3-acetamido-4,5-dihydroxy-6-(hydroxymethyl)tetrahydro-2H-pyran-2-yl)oxy)-6-methoxy-[1,1′-biphenyl]-3-carboxylate]	–	–	13.7	13.7	–	–	–	0	0
CC(=O)N[C@H]1[C@H](Oc2ccccc2-c2cccc(S(C)(=O)=O)c2)O[C@H](CO)[C@H](O)[C@@H]1O [AM2059, N-((2S,3R,4R,5R,6R)-4,5-dihydroxy-6-(hydroxymethyl)-2-((3′-(methylsulfonyl)-[1,1′-biphenyl]-2-yl)oxy)tetrahydro-2H-pyran-3-yl)acetamide]	equal or slightly reduced potency	0.7	23.3	23.3	–	–	–	0.1	0.1
CC(=O)Nc1cccc(-c2ccccc2O[C@@H]2O[C@H](CO)[C@H](O)[C@H](O)[C@H]2NC(C)=O)c1 [AM2062, N-(2′-(((2S,3R,4R,5R,6R)-3-acetamido-4,5-dihydroxy-6-(hydroxymethyl)tetrahydro-2H-pyran-2-yl)oxy)-[1,1′-biphenyl]-3-yl)acetamide]	–	0.31	67.9	67.9	–	0.623	–	14.8	14.8
CC(=O)N[C@H]1[C@H](Oc2ccccc2-c2cccc(CO)c2)O[C@H](CO)[C@H](O)[C@@H]1O [AM2064, N-((2S,3R,4R,5R,6R)-4,5-dihydroxy-6-(hydroxymethyl)-2-((3′-(hydroxymethyl)-[1,1′-biphenyl]-2-yl)oxy)tetrahydro-2H-pyran-3-yl)acetamide]	equal or slightly reduced potency	0.63	38.9	38.9	–	–	–	2	2
COC(=O)Nc1cccc(-c2ccccc2O[C@@H]2O[C@H](CO)[C@H](O)[C@H](O)[C@H]2NC(C)=O)c1 [AM2065, methyl (2′-(((2S,3R,4R,5R,6R)-3-acetamido-4,5-dihydroxy-6-(hydroxymethyl)tetrahydro-2H-pyran-2-yl)oxy)-[1,1′-biphenyl]-3-yl)carbamate]	equal or slightly reduced potency	0.63	45.3	45.3	–	1.05	–	0	0
COc1ccc(O)cc1-c1ccccc1O[C@@H]1O[C@H](CO)[C@H](O)[C@H](O)[C@H]1NC(C)=O [AM2073, N-((2S,3R,4R,5R,6R)-4,5-dihydroxy-2-((5′-hydroxy-2′-methoxy-[1,1′-biphenyl]-2-yl)oxy)-6-(hydroxymethyl)tetrahydro-2H-pyran-3-yl)acetamide]	equal or slightly reduced potency	0.51	34.2	34.2	–	–	–	7.1	7.1
COc1ccc(OS(C)(=O)=O)cc1-c1ccccc1O[C@@H]1O[C@H](CO)[C@H](O)[C@H](O)[C@H]1NC(C)=O [AM2077, 2′-(((2S,3R,4R,5R,6R)-3-acetamido-4,5-dihydroxy-6-(hydroxymethyl)tetrahydro-2H-pyran-2-yl)oxy)-6-methoxy-[1,1′-biphenyl]-3-yl methanesulfonate]	equal or slightly reduced potency	3.72	0	0	–	–	–	2.5	2.5
